Results on 27 compounds are retold here after BindingDB's records for doi:10.1021/acschembio.6b00747 (The University of Kansas, 2017).

Test [1] addresses Heat shock protein HSP 90-alpha (Homo sapiens, UniProt P07900). The test is described as follows: Fluorescence Polarization (FP) Assay. The note with it: pH 7.3. Here is the method:
(§1) Assay buffer (25 μL, 20 mM HEPES at pH 7.3, 50 mM KCl, 5 mM MgCl2, 1 mM DTT, 20 mM Na2MoO4, 0.01% NP-40, and 0.5 mg mL−1 BGG) was added to a 96-well plate (black well, black bottom) followed by the desired compound at the indicated final concentrations in DMSO (1% DMSO final concentration). Subsequently, 10 nM recombinant cGrp94/Hsp90α and 6 nM FITC-GDA were added in 50 and 25 μL assay buffer respectively, resulting in a 100 μL final volume. Plates were incubatedfor 5 h at 4 °C on a rocker. […] Percent FITC-GDA bound was determined by assigning the DMSO millipolarization unit (mP) value as the 100% bound value and 0% for FITC-GDA in assay buffer without any protein.
In general terms: Polarisation of emitted light reports the rotation of a fluorescent probe.

The next test deals with Endoplasmin (Homo sapiens, UniProt P14625). The test is described as follows: Fluorescence Polarization (FP) Assay. Particulars: pH 7.3. Here is the method:
as §1

Endoplasmin, sequence (P14625 whole entry): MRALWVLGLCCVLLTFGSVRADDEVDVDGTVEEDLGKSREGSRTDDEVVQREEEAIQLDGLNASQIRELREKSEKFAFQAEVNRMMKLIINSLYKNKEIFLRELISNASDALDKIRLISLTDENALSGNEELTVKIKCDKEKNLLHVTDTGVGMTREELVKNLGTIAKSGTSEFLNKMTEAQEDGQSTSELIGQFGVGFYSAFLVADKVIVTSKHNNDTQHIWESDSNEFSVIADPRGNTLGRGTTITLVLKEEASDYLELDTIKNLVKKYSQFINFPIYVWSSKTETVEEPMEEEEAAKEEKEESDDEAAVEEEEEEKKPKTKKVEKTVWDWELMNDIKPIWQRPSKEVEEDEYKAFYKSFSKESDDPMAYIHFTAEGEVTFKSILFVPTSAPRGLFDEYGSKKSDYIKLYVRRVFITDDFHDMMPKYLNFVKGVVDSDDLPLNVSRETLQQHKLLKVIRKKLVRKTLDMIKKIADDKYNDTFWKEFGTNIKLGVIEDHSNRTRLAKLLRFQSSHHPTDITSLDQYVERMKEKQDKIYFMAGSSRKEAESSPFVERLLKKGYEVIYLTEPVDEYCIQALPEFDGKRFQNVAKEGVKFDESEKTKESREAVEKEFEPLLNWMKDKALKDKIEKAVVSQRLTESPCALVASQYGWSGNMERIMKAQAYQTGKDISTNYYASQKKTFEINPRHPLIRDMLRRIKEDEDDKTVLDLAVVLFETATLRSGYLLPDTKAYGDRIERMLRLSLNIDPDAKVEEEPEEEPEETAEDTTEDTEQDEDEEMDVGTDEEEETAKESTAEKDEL

As to `COc1ccccc1Cc1cccn1-c1ccc(C(N)=O)c(NC2CCC(O)CC2)c1` (stereo not given) [2-(((1r,4r)-4-hydroxycyclohexyl)amino)-4-(2-(2-methoxybenzyl)-1H-pyrrol-1-yl)benzamide (8m)], the Kd (in general, a measure of binding affinity in units of concentration) in test [1] is above 100 µM; on Endoplasmin, 1.15 µM. As for `Cc1ccccc1Cc1cccn1-c1ccc(C(N)=O)c(NC2CCC(O)CC2)c1` (stereo not given) [2-(((1r,4r)-4-hydroxycyclohexyl)amino)-4-(2-(2-methylbenzyl)-1H-pyrrol-1-yl)benzamide (8i)], the Kd in test [1] was above 100 µM; at Endoplasmin, 4.2 µM. As for `Cc1cccc(-c2cccn2-c2ccc(C(N)=O)c(NC3CCC(O)CC3)c2)c1` (stereo not given) [2-(((1r,4r)-4-hydroxycyclohexyl)amino)-4-(2-(m-tolyl)-1H-pyrrol-1-yl)benzamide (5c)], the Kd in test [1] was above 100 µM; at Endoplasmin it was 9.43 µM. As for `Cc1ccccc1-c1cccn1-c1ccc(C(N)=O)c(NC2CCC(O)CC2)c1` (stereo not given) [2-(((1r,4r)-4-hydroxycyclohexyl)amino)-4-(2-(o-tolyl)-1H-pyrrol-1-yl)benzamide (5b)], the Kd is above 100 µM in test [1] and 9.9 µM on Endoplasmin. The matching figures for `Cc1ccc(-c2cccn2-c2ccc(C(N)=O)c(NC3CCC(O)CC3)c2)cc1` (stereo not given) [2-(((1r,4r)-4-hydroxycyclohexyl)amino)-4-(2-(p-tolyl)-1H-pyrrol-1-yl)benzamide (5d)]: above 100 µM and 8.35 µM. The matching figures for `NC(=O)c1ccc(-n2cccc2-c2ccccn2)cc1NC1CCC(O)CC1` (stereo not given) [2-(((1r,4r)-4-hydroxycyclohexyl)amino)-4-(2-(pyridin-2-yl)-1H-pyrrol-1-yl)benzamide (5h)]: above 100 µM and 14 µM. For `NC(=O)c1ccc(-n2cccc2Cc2ccccn2)cc1NC1CCC(O)CC1` (stereo not given) [2-(((1r,4r)-4-hydroxycyclohexyl)amino)-4-(2-(pyridin-2-ylmethyl)-1H-pyrrol-1-yl)benzamide (8o)], in that order: above 100 µM and 14 µM. As for `NC(=O)c1ccc(-n2cccc2-c2cccnc2)cc1NC1CCC(O)CC1` (stereo not given) [2-(((1r,4r)-4-hydroxycyclohexyl)amino)-4-(2-(pyridin-3-yl)-1H-pyrrol-1-yl)benzamide (5i)], the dissociation constant (Kd) in test [1] was above 100 µM; at Endoplasmin, 5.5 µM.

Regarding `NC(=O)c1ccc(-n2cccc2Cc2cccnc2)cc1NC1CCC(O)CC1` (stereo not given) [2-(((1r,4r)-4-hydroxycyclohexyl)amino)-4-(2-(pyridin-3-ylmethyl)-1H-pyrrol-1-yl)benzamide (8p)], the Kd is above 100 µM in test [1] and 5.5 µM at Endoplasmin. The matching figures for `NC(=O)c1ccc(-n2cccc2-c2ccncc2)cc1NC1CCC(O)CC1` (stereo not given) [2-(((1r,4r)-4-hydroxycyclohexyl)amino)-4-(2-(pyridin-4-yl)-1H-pyrrol-1-yl)benzamide (5j)]: above 100 µM and 13.2 µM. As for `NC(=O)c1ccc(-n2cccc2Cc2ccncc2)cc1NC1CCC(O)CC1` (stereo not given) [2-(((1r,4r)-4-hydroxycyclohexyl)amino)-4-(2-(pyridin-4-ylmethyl)-1H-pyrrol-1-yl)benzamide (8q)], the Kd was above 100 µM in test [1] and 13.2 µM on Endoplasmin. As for `NC(=O)c1ccc(-n2cccc2CCc2ccccc2)cc1NC1CCC(O)CC1` (stereo not given) [2-(((1r,4r)-4-hydroxycyclohexyl)amino)-4-(2-phenethyl-1H-pyrrol-1-yl)benzamide (9)], the Kd was above 100 µM in test [1] and above 25 µM at Endoplasmin. For `NC(=O)c1ccc(-n2cccc2-c2ccccc2)cc1NC1CCC(O)CC1` (stereo not given) [2-(((1r,4r)-4-hydroxycyclohexyl)amino)-4-(2-phenyl-1H-pyrrol-1-yl)benzamide (5a)], in that order: above 100 µM and 9.05 µM. For the compound `NC(=O)c1ccc(-n2cccc2Cc2c(F)cccc2F)cc1N[C@H]1CC[C@H](O)CC1` [4-(2-(2,6-difluorobenzyl)-1H-pyrrol-1-yl)-2-(((1r,4r)-4hydroxycyclohexyl)amino)benzamide (8n)], on Endoplasmin, the Kd was above 25 µM. `NC(=O)c1ccc(-n2cccc2Cc2ccccc2Br)cc1NC1CCC(O)CC1` (stereo not given) [4-(2-(2-bromobenzyl)-1H-pyrrol-1-yl)-2-(((1r,4r)-4-hydroxycyclohexyl)amino)benzamide (8h)]: the Kd was above 100 µM in test [1] and 12.9 µM at Endoplasmin.

As for `NC(=O)c1ccc(-n2cccc2Cc2ccccc2Cl)cc1NC1CCC(O)CC1` (stereo not given) [4-(2-(2-chlorobenzyl)-1H-pyrrol-1-yl)-2-(((1r,4r)-4-hydroxycyclohexyl)amino)benzamide (8b)], the Kd in test [1] is above 100 µM; at Endoplasmin it was 0.83 µM. The compound `NC(=O)c1ccc(-n2cccc2-c2ccccc2Cl)cc1NC1CCC(O)CC1` (stereo not given) [4-(2-(2-chlorophenyl)-1H-pyrrol-1-yl)-2-(((1r,4r)-4-hydroxycyclohexyl)amino)benzamide (5e)] displayed a Kd in test [1] above 100 µM. Take `NC(=O)c1ccc(-n2cccc2Cc2ccccc2F)cc1NC1CCC(O)CC1` (stereo not given) [4-(2-(2-fluorobenzyl)-1H-pyrrol-1-yl)-2-(((1r,4r)-4-hydroxycyclohexyl)amino)benzamide (8e)]: the Kd is above 100 µM in test [1] and 0.72 µM at Endoplasmin.

As to `NC(=O)c1ccc(-n2cccc2Cc2cccc(Cl)c2)cc1NC1CCC(O)CC1` (stereo not given) [4-(2-(3-chlorobenzyl)-1H-pyrrol-1-yl)-2-(((1r,4r)-4-hydroxycyclohexyl)amino)benzamide (8c)], the Kd in test [1] is above 100 µM; on Endoplasmin it was 2.45 µM.

Compound `NC(=O)c1ccc(-n2cccc2-c2cccc(Cl)c2)cc1NC1CCC(O)CC1` (stereo not given) [4-(2-(3-chlorophenyl)-1H-pyrrol-1-yl)-2-(((1r,4r)-4-hydroxycyclohexyl)amino)benzamide (5f)] came in with an equilibrium dissociation constant (Kd) in test [1] above 100 µM. Turning to `NC(=O)c1ccc(-n2cccc2Cc2cccc(F)c2)cc1NC1CCC(O)CC1` (stereo not given) [4-(2-(3-fluorobenzyl)-1H-pyrrol-1-yl)-2-(((1r,4r)-4-hydroxycyclohexyl)amino)benzamide (8f)], the Kd in test [1] was above 100 µM; on Endoplasmin, 4.53 µM. As for `NC(=O)c1ccc(-n2cccc2Cc2cccc(O)c2)cc1NC1CCC(O)CC1` (stereo not given) [4-(2-(3-hydroxybenzyl)-1H-pyrrol-1-yl)-2-(((1r,4r)-4-hydroxycyclohexyl)amino)benzamide (8k)], the Kd in test [1] was above 100 µM; on Endoplasmin, above 25 µM.

For the compound `NC(=O)c1ccc(-n2cccc2Cc2ccc(Cl)cc2)cc1NC1CCC(O)CC1` (stereo not given) [4-(2-(4-chlorobenzyl)-1H-pyrrol-1-yl)-2-(((1r,4r)-4-hydroxycyclohexyl)amino)benzamide (8d)], the figures for the Kd (in test [1]; at Endoplasmin) were above 100 µM and above 25 µM, respectively. The matching figures for `NC(=O)c1ccc(-n2cccc2-c2ccc(Cl)cc2)cc1NC1CCC(O)CC1` (stereo not given) [4-(2-(4-chlorophenyl)-1H-pyrrol-1-yl)-2-(((1r,4r)-4-hydroxycyclohexyl)amino)benzamide (5g)]: above 100 µM and 10.6 µM. For `NC(=O)c1ccc(-n2cccc2Cc2ccc(F)cc2)cc1NC1CCC(O)CC1` (stereo not given) [4-(2-(4-fluorobenzyl)-1H-pyrrol-1-yl)-2-(((1r,4r)-4-hydroxycyclohexyl)amino)benzamide (8g)], in that order: above 100 µM and 8.35 µM. As to `NC(=O)c1ccc(-n2cccc2Cc2ccc(O)cc2)cc1NC1CCC(O)CC1` (stereo not given) [4-(2-(4-hydroxybenzyl)-1H-pyrrol-1-yl)-2-(((1r,4r)-4-hydroxycyclohexyl)amino)benzamide (8l)], in test [1], the equilibrium dissociation constant (Kd) is above 100 µM.

For the compound `NC(=O)c1ccc(-n2cccc2Cc2ccccc2)cc1NC1CCC(O)CC1` (stereo not given) [4-(2-benzyl-1H-pyrrol-1-yl)-2-(((1r,4r)-4-hydroxycyclohexyl)amino)benzamide (8a)], the Kd in test [1] is above 100 µM; on Endoplasmin it was 1.13 µM.
